Experiments:
[1] = system: Plasmodium falciparum; assay: Antiplasmodial activity against chloroquine-resistant Plasmodium falciparum FcB1/Columbia infected in human erythrocytes assessed as parasite growth inhibition at 1 ug/ml after 24 hrs by [3H]-hypoxanthine incorporation assay relative to control; assay type: functional; settings: read-out: GI
[2] = system: Plasmodium falciparum; assay: Antiplasmodial activity against chloroquine-resistant Plasmodium falciparum FcB1/Columbia infected in human erythrocytes assessed as parasite growth inhibition at 50 ug/ml after 24 hrs by [3H]-hypoxanthine incorporation assay relative to control; assay type: functional; settings: read-out: GI
[3] = system: Leishmania donovani; assay: Leishmanicidal activity against promastigote stage of Leishmania donovani LV9 assessed as cell viability by MTT assay; assay type: functional, organism-based
[4] = system: Trypanosoma brucei brucei; assay: Antitrypanosomal activity against bloodstream stage of Trypanosoma brucei brucei 93 assessed as parasite growth inhibition at 1 ug/ml after 72 hrs by resazurin reduction assay relative to control; assay type: functional; settings: Trypanosoma brucei, 93, 72 h; read-out: GI
[5] = Safety index, ratio of IC50 for african green monkey Vero cells to IC50 for promastigote stage of Leishmania donovani LV9; assay type: toxicity, cell-based; settings: read-out: Ratio IC50
[6] = system: Vero; assay: Cytotoxicity against african green monkey Vero cells assessed as growth inhibition after 72 hrs by MTS assay; assay type: cell-based; settings: Chlorocebus sabaeus
[7] = system: Trypanosoma brucei brucei; assay: Antitrypanosomal activity against bloodstream stage of Trypanosoma brucei brucei 93 assessed as parasite growth inhibition at 50 ug/ml after 72 hrs by resazurin reduction assay relative to control; assay type: functional; settings: Trypanosoma brucei, 93, 72 h; read-out: GI
[8] = system: Trypanosoma brucei brucei; assay: Antitrypanosomal activity against bloodstream stage of Trypanosoma brucei brucei 93 assessed as parasite growth inhibition at 10 ug/ml after 72 hrs by resazurin reduction assay relative to control; assay type: functional; settings: Trypanosoma brucei, 93, 72 h; read-out: GI
[9] = system: Plasmodium falciparum; assay: Antiplasmodial activity against chloroquine-resistant Plasmodium falciparum FcB1/Columbia infected in human erythrocytes assessed as parasite growth inhibition at 10 ug/ml after 24 hrs by [3H]-hypoxanthine incorporation assay relative to control; assay type: functional; settings: read-out: GI
[10] = system: Trypanosoma brucei brucei; assay: Antitrypanosomal activity against bloodstream stage of Trypanosoma brucei brucei 93 assessed as parasite growth inhibition after 72 hrs by resazurin reduction assay; assay type: functional, organism-based; settings: Trypanosoma brucei, 93, 72 h
[11] = Safety index, ratio of IC50 for african green monkey Vero cells to IC50 for bloodstream stage of Trypanosoma brucei brucei 93; assay type: toxicity, cell-based; settings: read-out: Ratio IC50
[12] = Safety index, ratio of IC50 for african green monkey Vero cells to IC50 for chloroquine-resistant Plasmodium falciparum FcB1/Columbia infected in human erythrocytes; assay type: toxicity, cell-based; settings: read-out: Ratio IC50
[13] = system: Plasmodium falciparum; assay: Antiplasmodial activity against chloroquine-resistant Plasmodium falciparum FcB1/Columbia infected in human erythrocytes assessed as parasite growth inhibition after 24 hrs by [3H]-hypoxanthine incorporation assay; assay type: functional, organism-based

Compound | inhibition of growth at 1 µg/mL [1] [%] | inhibition of growth at 50 µg/mL [2] [%] | IC50 [3] [µM] | inhibition of growth at 1 µg/mL [4] [%] | selectivity ratio [5] | IC50 [6] [µM] | inhibition of growth at 50 µg/mL [7] [%] | inhibition of growth at 10 µg/mL [8] [%] | inhibition of growth at 10 µg/mL [9] [%] | IC50 [10] [µM] | selectivity ratio [11] | selectivity ratio [12] | IC50 [13] [µM]
COc1ccc(C(=O)C2=C(O)[C@]3(CC=C(C)C)C[C@H](CC=C(C)C)[C@@](C)(CCC=C(C)C)[C@](CC=C(C)C)(C2=O)C3=O)cc1OC | 13.8 | 99.3 | 12.2 | 17.7 | 1.8 | 21.8 | 94 | 96.3 | 59.2 |  |  |  | 
COCOc1ccc(C(=O)C2=C(O)[C@]3(CC=C(C)C)C[C@H](CC=C(C)C)[C@@](C)(CCC=C(C)C)[C@](CC=C(C)C)(C2=O)C3=O)cc1OCOC | 7.94 | 99.5 | 23.3 | 6.82 |  |  | 93.2 | 95.5 | 20.9 |  |  |  | 
CC(C)=CCC[C@]1(C)[C@@H](CC=C(C)C)C[C@]2(CC=C(C)C)C(=O)[C@@]1(CC=C(C)C)C(=O)C(C(=O)c1ccc(OCc3ccccc3)c(OCc3ccccc3)c1)=C2O | 7.07 | 99.1 | > 100 | 32.8 | < 0.3 | 32.6 | 94.9 | 94.8 | 38.6 | 3.23 | 10.1 |  | 
COc1ccc([N+](=O)[O-])cc1COc1ccc(C(=O)C2=C(O)[C@]3(CC=C(C)C)C[C@H](CC=C(C)C)[C@@](C)(CCC=C(C)C)[C@](CC=C(C)C)(C2=O)C3=O)cc1OCc1cc([N+](=O)[O-])ccc1OC | 13.7 | 79.1 | > 100 | 9.11 |  |  | 93 | 51.9 | 20.1 |  |  |  | 
CC(C)=CCC[C@]1(C)[C@@H](CC=C(C)C)C[C@]2(CC=C(C)C)C(=O)[C@@]1(CC=C(C)C)C(=O)C(C(=O)c1ccc(OC(=O)C=C(C)C)c(OC(=O)C=C(C)C)c1)=C2O | 3.6 | 94.9 | 28.9 | 10.5 |  |  | 96.1 | 92 | 31.6 |  |  |  | 
CC(C)=CCC[C@]1(C)[C@@H](CC=C(C)C)C[C@]2(CC=C(C)C)C(=O)[C@@]1(CC=C(C)C)C(=O)C(C(=O)c1ccc(OCCC3OCCO3)c(O)c1)=C2O [14-O-2-ETHYL-1,3-DIOXOLANE-GUTTIFERONE A] | 15.3 | 99.6 | 22.2 | 8.18 |  |  | 94.9 | 96.4 | 49.1 |  |  |  | 
COc1ccc([N+](=O)[O-])cc1COc1ccc(C(=O)C2=C(O)[C@]3(CC=C(C)C)C[C@H](CC=C(C)C)[C@@](C)(CCC=C(C)C)[C@](CC=C(C)C)(C2=O)C3=O)cc1O [14-O-2-METHOXY-5-NITROBENZYL-GUTTIFERONE A] | 6.06 | 97.4 | > 100 | 8.4 |  |  | 96.1 | 88.9 | 14.6 |  |  |  | 
C=CCOc1ccc(C(=O)C2=C(O)[C@]3(CC=C(C)C)C[C@H](CC=C(C)C)[C@@](C)(CCC=C(C)C)[C@](CC=C(C)C)(C2=O)C3=O)cc1O [14-O-ALLYL-GUTTIFERONE A] | 0.83 | 99.5 | 15.7 | 20.3 |  |  | 92.6 | 95.1 | 11 |  |  |  | 
CC(C)=CCC[C@]1(C)[C@@H](CC=C(C)C)C[C@]2(CC=C(C)C)C(=O)[C@@]1(CC=C(C)C)C(=O)C(C(=O)c1ccc(OCc3ccccc3)c(O)c1)=C2O [14-O-BENZYL-GUTTIFERONE A] | 16.1 | 99.1 | 22.4 | 23.6 |  |  | 95 | 96 | 49 |  |  |  | 
CCOc1ccc(C(=O)C2=C(O)[C@]3(CC=C(C)C)C[C@H](CC=C(C)C)[C@@](C)(CCC=C(C)C)[C@](CC=C(C)C)(C2=O)C3=O)cc1O [14-O-ETHYL-GUTTIFERONE A] | 14.9 | 99.7 | 16.2 | 15.8 |  |  | 93 | 94.7 | 28.2 |  |  |  | 
CC(C)=CCC[C@]1(C)[C@@H](CC=C(C)C)C[C@]2(CC=C(C)C)C(=O)[C@@]1(CC=C(C)C)C(=O)C(C(=O)c1ccc(OC(C)C)c(O)c1)=C2O [14-O-ISOPROPYL-GUTTIFERONE A] | 14.7 | 99.8 | 18 | 15.4 |  |  | 94.4 | 95.7 | 25.6 |  |  |  | 
COCOc1ccc(C(=O)C2=C(O)[C@]3(CC=C(C)C)C[C@H](CC=C(C)C)[C@@](C)(CCC=C(C)C)[C@](CC=C(C)C)(C2=O)C3=O)cc1O [14-O-METHOXYMETHYL-GUTTIFERONE A] | 10.8 | 99.6 | 14.6 | 13.2 | 0.9 | 13 | 92.5 | 96.3 | 74.8 |  |  | 2.7 | 4.84
C#CCOc1ccc(C(=O)C2=C(O)[C@]3(CC=C(C)C)C[C@H](CC=C(C)C)[C@@](C)(CCC=C(C)C)[C@](CC=C(C)C)(C2=O)C3=O)cc1O [14-O-PROPARGYL-GUTTIFERONE A] | 6.95 | 99.5 | 18 | 20.9 |  |  | 92.1 | 96 | 49.4 |  |  |  | 
CCCOc1ccc(C(=O)C2=C(O)[C@]3(CC=C(C)C)C[C@H](CC=C(C)C)[C@@](C)(CCC=C(C)C)[C@](CC=C(C)C)(C2=O)C3=O)cc1O [14-O-PROPYL-GUTTIFERONE A] | 2.36 | 99.6 | 20.7 | 5.33 |  |  | 94.2 | 94.6 | 13.4 |  |  |  | 
C[C@@H]1[C@H](O)[C@@H](C)/C=C/C=C/C=C/C=C/C=C/C=C/C=C/[C@H](O[C@@H]2O[C@H](C)[C@@H](O)[C@H](N)[C@@H]2O)C[C@@H]2O[C@](O)(C[C@@H](O)C[C@@H](O)[C@H](O)CC[C@@H](O)C[C@@H](O)CC(=O)O[C@H]1C)C[C@H](O)[C@H]2C(=O)O [AMPHOTERICIN B] |  |  | 0.03 |  | 11 | 0.33 |  |  |  |  |  |  | 
CCN(CC)CCCC(C)Nc1ccnc2cc(Cl)ccc12 (stereo not given) [CHLOROQUINE] |  |  |  |  |  | 21 |  |  |  |  |  |  | 
CCCCCCCCCCCCCCCCOP(=O)([O-])OCC[N+](C)(C)C [MILTEFOSINE] |  |  | 16.2 |  | 4 | 65 |  |  |  |  |  |  | 

Source: ChEMBL document CHEMBL2401618 (Eur J Med Chem, 2013)
